Like-named read-outs stand apart in the source and are kept apart here.
System: C. acnes (BNCC 336649)
Details: for Concentration with antimicrobial activity >50%: C. acnes; for Concentration with antimicrobial activity >50% / Category of in vitro test antimicrobial activity against C. acnes: supplementary Table 5; for Antimicrobial activity > 50% against C. acnes: broth microdilution, 48 h, OD 630 nm
Protocol: The strain of C. acnes (BNCC 336649) was cultured in Wilkins-Chalgren Anaerobe Broth (QingDao RiShui Bio-technologies, 11071) at 37 °C under an anaerobic atmosphere performed by a Labiophy HL-B automatic hypoxic workstation (Dalian, Liaoning Province, Labiophy HL-B), inflated with a gas mix of 15% carbon dioxide, 83% nitrogen, and 2% hydrogen.
Logarithmic phase growth bacteria were used for antimicrobial testing.
To determine the MIC values, the broth microdilution method was used. […] Briefly, peptide samples were prepared as a stock solution in water and then diluted. 180 μL of the bacterial suspension (10^7 CFU/mL) and 20 μL of the tested sample were added together into 96-Well Deep Well Plates and incubated 24 h for E. coli and S. aureus or 48 h for C. acnes and C. albicans. For each test, two columns of the plate were kept for sterility control (broth only) and growth control (broth with bacterial inoculums, no antibiotics). The optical density of cultures was measured at 630 nm by a microplate reader (SYNERGY-H1, BioTek, USA) to estimate bacterial growth. All experiments were conducted in triplicate. We used ciprofloxacin (CPFX) as the antibiotic control for antimicrobial testing.

Row | Sequence | Concentration with antimicrobial activity >50% | Antimicrobial activity > 50% against C. acnes (at 25 µg/mL) | Antimicrobial activity > 50% against C. acnes (at 50 µg/mL) | Antimicrobial activity > 50% against C. acnes (at 100 µg/mL) | Category of in vitro test antimicrobial activity against C. acnes
1 | AIHKLAHHIAKLAKK [AMP-35] | no | No (A peptide was deemed to have antimicrobial activity if C. acnes growth was inhibited by more than 50% at a given concentration) | No (A peptide was deemed to have antimicrobial activity if C. acnes growth was inhibited by more than 50% at a given concentration) | No (A peptide was deemed to have antimicrobial activity if C. acnes growth was inhibited by more than 50% at a given concentration) | No AMP
2 | AKKALKAAAKIIKWL [AMP-19] | 25 µg/mL | Inhibit (A peptide was deemed to have antimicrobial activity if C. acnes growth was inhibited by more than 50% at a given concentration) | Inhibit (A peptide was deemed to have antimicrobial activity if C. acnes growth was inhibited by more than 50% at a given concentration) | Inhibit (A peptide was deemed to have antimicrobial activity if C. acnes growth was inhibited by more than 50% at a given concentration) | Medium AMP
3 | ALIKKLERTLRKAI [AMP-37] | no | No (A peptide was deemed to have antimicrobial activity if C. acnes growth was inhibited by more than 50% at a given concentration) | No (A peptide was deemed to have antimicrobial activity if C. acnes growth was inhibited by more than 50% at a given concentration) | No (A peptide was deemed to have antimicrobial activity if C. acnes growth was inhibited by more than 50% at a given concentration) | No AMP
4 | CKAVLRWVSRLKKL [AMP-39] | 25 µg/mL | Inhibit (A peptide was deemed to have antimicrobial activity if C. acnes growth was inhibited by more than 50% at a given concentration) | Inhibit (A peptide was deemed to have antimicrobial activity if C. acnes growth was inhibited by more than 50% at a given concentration) | Inhibit (A peptide was deemed to have antimicrobial activity if C. acnes growth was inhibited by more than 50% at a given concentration) | Medium AMP
5 | DALRALHHLLKRAL [AMP-42] | no | No (A peptide was deemed to have antimicrobial activity if C. acnes growth was inhibited by more than 50% at a given concentration) | No (A peptide was deemed to have antimicrobial activity if C. acnes growth was inhibited by more than 50% at a given concentration) | No (A peptide was deemed to have antimicrobial activity if C. acnes growth was inhibited by more than 50% at a given concentration) | No AMP
6 | FKRLQKLLFTLKQK [AMP-40] | no | No (A peptide was deemed to have antimicrobial activity if C. acnes growth was inhibited by more than 50% at a given concentration) | No (A peptide was deemed to have antimicrobial activity if C. acnes growth was inhibited by more than 50% at a given concentration) | No (A peptide was deemed to have antimicrobial activity if C. acnes growth was inhibited by more than 50% at a given concentration) | No AMP
7 | FLGQLKNFFKKLAS [AMP-7] |  | No (A peptide was deemed to have antimicrobial activity if C. acnes growth was inhibited by more than 50% at a given concentration) | Inhibit (A peptide was deemed to have antimicrobial activity if C. acnes growth was inhibited by more than 50% at a given concentration) | Inhibit (A peptide was deemed to have antimicrobial activity if C. acnes growth was inhibited by more than 50% at a given concentration) | Medium AMP
8 | FLKKLRTAVLKLTKG [AMP-17] | 25 µg/mL | Inhibit (A peptide was deemed to have antimicrobial activity if C. acnes growth was inhibited by more than 50% at a given concentration) | Inhibit (A peptide was deemed to have antimicrobial activity if C. acnes growth was inhibited by more than 50% at a given concentration) | Inhibit (A peptide was deemed to have antimicrobial activity if C. acnes growth was inhibited by more than 50% at a given concentration) | Medium AMP
9 | GFKRIVHRLTKWLA [AMP-11] | 12.5 µg/mL | Inhibit (A peptide was deemed to have antimicrobial activity if C. acnes growth was inhibited by more than 50% at a given concentration) | Inhibit (A peptide was deemed to have antimicrobial activity if C. acnes growth was inhibited by more than 50% at a given concentration) | Inhibit (A peptide was deemed to have antimicrobial activity if C. acnes growth was inhibited by more than 50% at a given concentration) | Strong AMP
10 | GIGALVKFLPKLFK [AMP-41] | 25 µg/mL | Inhibit (A peptide was deemed to have antimicrobial activity if C. acnes growth was inhibited by more than 50% at a given concentration) | Inhibit (A peptide was deemed to have antimicrobial activity if C. acnes growth was inhibited by more than 50% at a given concentration) | Inhibit (A peptide was deemed to have antimicrobial activity if C. acnes growth was inhibited by more than 50% at a given concentration) | Medium AMP
11 | GKLKKIWKNFGKIIK [AMP-20] | 25 µg/mL | Inhibit (A peptide was deemed to have antimicrobial activity if C. acnes growth was inhibited by more than 50% at a given concentration) | Inhibit (A peptide was deemed to have antimicrobial activity if C. acnes growth was inhibited by more than 50% at a given concentration) | Inhibit (A peptide was deemed to have antimicrobial activity if C. acnes growth was inhibited by more than 50% at a given concentration) | Medium AMP
12 | GLTLLKKFLHAAKKF [AMP-23] | 25 µg/mL | Inhibit (A peptide was deemed to have antimicrobial activity if C. acnes growth was inhibited by more than 50% at a given concentration) | Inhibit (A peptide was deemed to have antimicrobial activity if C. acnes growth was inhibited by more than 50% at a given concentration) | Inhibit (A peptide was deemed to have antimicrobial activity if C. acnes growth was inhibited by more than 50% at a given concentration) | Medium AMP
13 | GLVSRLRRLVTPLL [AMP-4] |  | No (A peptide was deemed to have antimicrobial activity if C. acnes growth was inhibited by more than 50% at a given concentration) | Inhibit (A peptide was deemed to have antimicrobial activity if C. acnes growth was inhibited by more than 50% at a given concentration) | Inhibit (A peptide was deemed to have antimicrobial activity if C. acnes growth was inhibited by more than 50% at a given concentration) | Medium AMP
14 | KAIAALAKKIIKVAK [AMP-24] | no | No (A peptide was deemed to have antimicrobial activity if C. acnes growth was inhibited by more than 50% at a given concentration) | No (A peptide was deemed to have antimicrobial activity if C. acnes growth was inhibited by more than 50% at a given concentration) | No (A peptide was deemed to have antimicrobial activity if C. acnes growth was inhibited by more than 50% at a given concentration) | No AMP
15 | KALAATVKKVAKLIK [AMP-34] | no | No (A peptide was deemed to have antimicrobial activity if C. acnes growth was inhibited by more than 50% at a given concentration) | No (A peptide was deemed to have antimicrobial activity if C. acnes growth was inhibited by more than 50% at a given concentration) | No (A peptide was deemed to have antimicrobial activity if C. acnes growth was inhibited by more than 50% at a given concentration) | No AMP

— publication PMC10894229, “Novel antimicrobial peptides against Cutibacterium acnes designed by deep learning” (Scientific Reports, 2024)
